# Data taken from publication PMC7835349 (Communications Biology, 2021).
# “And” between values parts separate entries of the source, which are not always exact repeats. Equal entries are not always repeated.
# What was measured:
# telemetered dogs = assay: Conscious dog telemetry (QRS amplitude and other cardiovascular parameters, tolerability); details: for ECG PR interval / ECG QRS duration / Left ventricular -dP/dt (mmHg/s) / QRS amplitude (% baseline) / Systolic blood pressure (mmHg): 0.85 mg/kg 0.5h infusion
# RS4;11 xenograft = assay: RS4;11 mouse xenograft efficacy (tumour volume); type: in vivo, C.B-17 SCID mouse; design: key to tumour volume, individual animals: tumour volume in mm³, length × width²/0.52; details: for tumour volume, individual animals: 10 mg/kg; for Tumour volume, Geo Mean: RS4;11 xenograft
# Procedure: Female C.B.−17 SCID mice were purchased from Charles River Laboratories. Mice were 5–8 weeks old at the time of tumour implantation. All xenograft studies were conducted at our Association for the Assessment and Accreditation of Laboratory Animal Care accredited facility in Waltham, MA in accordance with ethical regulations described in the guidelines established by the internal Institutional Animal Care and Use Committee. The dendrimer conjugates were formulated in citrate/phosphate buffer pH 5.0, diluted 1:10 with 5% glucose containing 1% w/v Kolliphor HS15, and AZD4320 was formulated in 30% HP-β-CD and dosed as a weekly intravenous (IV) administration at a volume of 5 ml/kg at the indicated doses. Five million RS4;11, five million SUDHL-4 or five million OCI-LY-10 cells were injected subcutaneously in the right flank of mice in a volume of 0.1 ml. Tumour volumes (measured by caliper), animal body weight, and tumor condition were recorded twice weekly for the duration of the study. The tumour volume was calculated (taking length to be the longest diameter across the tumour and width to be the corresponding perpendicular diameter) using the formula: length (mm) x width (mm)^2/0.52. For efficacy studies, mice were randomized based on tumour volumes using stratified sampling and enrolled into control and treatment groups. Tumour growth inhibition from the start of treatment was quantified by measuring the difference in tumour volume between control and treated groups. Survival analysis was evaluated using Mantel-Cox test. Tumours were also taken for bioanalysis.
# [1] = dog, AZD4320 0.2 mg/kg, 0.5 h infusion
# [2] = dog, AZD4320 0.85 mg/kg, 0.5 h infusion
# [3] = dog, AZD4320 0.85 mg/kg, 3 h infusion
# [4] = dog, AZD4320 1 mg/kg, 0.5 h infusion
# [5] = dog, AZD4320 1.75 mg/kg, 0.5 h infusion
structure (smiles),measurement,setting,value
CN(CCO)CCC(CSc1ccccc1)Nc1ccc(S(=O)(=O)NC(=O)c2ccc(N3CCC(C(O)c4ccccc4-c4ccc(Cl)cc4)CC3)cc2)cc1S(=O)(=O)C(F)(F)F (centres unmarked) [AZD4320],ECG PR interval,"telemetered dogs; dog, 1 h, 0.85 mg/kg",115 ms and 91 ms
same,ECG QRS duration,"telemetered dogs; dog, 1 h, 0.85 mg/kg",44 ms and 37 ms and 40 ms
same,Left ventricular -dP/dt (mmHg/s),"telemetered dogs; dog, 1 h, 0.85 mg/kg",3366 mmHg/s and 3696 mmHg/s and 3150 mmHg/s
same,QRS amplitude (% baseline),"telemetered dogs; dog, 1 h, 0.85 mg/kg",100 % baseline and 90 % baseline and 102 % baseline
same,Systolic blood pressure (mmHg),"telemetered dogs; dog, 1 h, 0.85 mg/kg",135 mmHg and 151 mmHg
same,ECG PR interval,"telemetered dogs; dog, 1.5 h, 0.85 mg/kg",117 ms and 112 ms
same,ECG QRS duration,"telemetered dogs; dog, 1.5 h, 0.85 mg/kg",44 ms and 39 ms and 40 ms
same,Left ventricular -dP/dt (mmHg/s),"telemetered dogs; dog, 1.5 h, 0.85 mg/kg",3030 mmHg/s and 3166 mmHg/s
same,QRS amplitude (% baseline),"telemetered dogs; dog, 1.5 h, 0.85 mg/kg",78 % baseline and 86 % baseline
same,Systolic blood pressure (mmHg),"telemetered dogs; dog, 1.5 h, 0.85 mg/kg",147 mmHg and 138 mmHg
same,ECG PR interval,"telemetered dogs; dog, 2 h, 0.85 mg/kg",111 ms and 87 ms
same,ECG QRS duration,"telemetered dogs; dog, 2 h, 0.85 mg/kg",42 ms and 36 ms and 39 ms
same,Left ventricular -dP/dt (mmHg/s),"telemetered dogs; dog, 2 h, 0.85 mg/kg",2904 mmHg/s and 3371 mmHg/s
same,QRS amplitude (% baseline),"telemetered dogs; dog, 2 h, 0.85 mg/kg",75 % baseline and 83 % baseline
same,Systolic blood pressure (mmHg),"telemetered dogs; dog, 2 h, 0.85 mg/kg",144 mmHg and 171 mmHg
same,ECG PR interval,"telemetered dogs; dog, 3 h, 0.85 mg/kg",99 ms and 81 ms
same,ECG QRS duration,"telemetered dogs; dog, 3 h, 0.85 mg/kg",37 ms and 33 ms
same,QRS amplitude (% baseline),"telemetered dogs; dog, 3 h, 0.85 mg/kg",59 % baseline and 60 % baseline
same,Systolic blood pressure (mmHg),"telemetered dogs; dog, 3 h, 0.85 mg/kg",142 mmHg and 156 mmHg
same,ECG PR interval,"telemetered dogs; dog, 4 h, 0.85 mg/kg",93 ms and 79 ms
same,ECG QRS duration,"telemetered dogs; dog, 4 h, 0.85 mg/kg",36 ms and 33 ms
same,QRS amplitude (% baseline),"telemetered dogs; dog, 4 h, 0.85 mg/kg",56 % baseline and 60 % baseline
same,Systolic blood pressure (mmHg),"telemetered dogs; dog, 4 h, 0.85 mg/kg",128 mmHg and 137 mmHg
same,ECG PR interval,"telemetered dogs; dog, 6 h, 0.85 mg/kg",89 ms and 79 ms
same,ECG QRS duration,"telemetered dogs; dog, 6 h, 0.85 mg/kg",37 ms and 35 ms
same,Left ventricular -dP/dt (mmHg/s),"telemetered dogs; dog, 6 h, 0.85 mg/kg",2074 mmHg/s and 2402 mmHg/s
same,QRS amplitude (% baseline),"telemetered dogs; dog, 6 h, 0.85 mg/kg",67 % baseline and 70 % baseline
same,Systolic blood pressure (mmHg),"telemetered dogs; dog, 6 h, 0.85 mg/kg",116 mmHg and 117 mmHg
same,ECG PR interval,"telemetered dogs; dog, 8 h, 0.85 mg/kg",88 ms and 83 ms
same,ECG QRS duration,"telemetered dogs; dog, 8 h, 0.85 mg/kg",37 ms and 34 ms
same,Left ventricular -dP/dt (mmHg/s),"telemetered dogs; dog, 8 h, 0.85 mg/kg",2367 mmHg/s and 2612 mmHg/s
same,QRS amplitude (% baseline),"telemetered dogs; dog, 8 h, 0.85 mg/kg",78 % baseline and 80 % baseline
same,Systolic blood pressure (mmHg),"telemetered dogs; dog, 8 h, 0.85 mg/kg",120 mmHg and 124 mmHg
same,ECG PR interval,"telemetered dogs; dog, 12 h, 0.85 mg/kg",85 ms
same,ECG QRS duration,"telemetered dogs; dog, 12 h, 0.85 mg/kg",40 ms and 36 ms
same,Left ventricular -dP/dt (mmHg/s),"telemetered dogs; dog, 12 h, 0.85 mg/kg",3043 mmHg/s and 2589 mmHg/s
same,QRS amplitude (% baseline),"telemetered dogs; dog, 12 h, 0.85 mg/kg",84 % baseline and 70 % baseline
same,Systolic blood pressure (mmHg),"telemetered dogs; dog, 12 h, 0.85 mg/kg",128 mmHg and 131 mmHg
same,ECG PR interval,"telemetered dogs; dog, 16 h, 0.85 mg/kg",102 ms and 87 ms
same,ECG QRS duration,"telemetered dogs; dog, 16 h, 0.85 mg/kg",42 ms and 37 ms
same,Left ventricular -dP/dt (mmHg/s),"telemetered dogs; dog, 16 h, 0.85 mg/kg",3119 mmHg/s and 2829 mmHg/s
same,QRS amplitude (% baseline),"telemetered dogs; dog, 16 h, 0.85 mg/kg",98 % baseline and 70 % baseline
same,Systolic blood pressure (mmHg),"telemetered dogs; dog, 16 h, 0.85 mg/kg",130 mmHg and 147 mmHg
same,ECG PR interval,"telemetered dogs; dog, 22 h, 0.85 mg/kg",112 ms and 84 ms
same,ECG QRS duration,"telemetered dogs; dog, 22 h, 0.85 mg/kg",44 ms and 36 ms
same,Left ventricular -dP/dt (mmHg/s),"telemetered dogs; dog, 22 h, 0.85 mg/kg",3111 mmHg/s and 3851 mmHg/s
same,QRS amplitude (% baseline),"telemetered dogs; dog, 22 h, 0.85 mg/kg",101 % baseline and 78 % baseline
same,Systolic blood pressure (mmHg),"telemetered dogs; dog, 22 h, 0.85 mg/kg",132 mmHg and 149 mmHg
same,ECG PR interval,"telemetered dogs; dog, -0.75 h, 0.85 mg/kg",111 ms and 99 ms
same,ECG QRS duration,"telemetered dogs; dog, -0.75 h, 0.85 mg/kg",45 ms and 39 ms
same,Left ventricular -dP/dt (mmHg/s),"telemetered dogs; dog, -0.75 h, 0.85 mg/kg",3973 mmHg/s and 3847 mmHg/s and 2891 mmHg/s
same,QRS amplitude (% baseline),"telemetered dogs; dog, -0.75 h, 0.85 mg/kg",100 % baseline and 105 % baseline and 103 % baseline
same,Systolic blood pressure (mmHg),"telemetered dogs; dog, -0.75 h, 0.85 mg/kg",162 mmHg and 159 mmHg
same,ECG PR interval,"telemetered dogs; dog, -1 h, 0.85 mg/kg",108 ms and 98 ms
same,ECG QRS duration,"telemetered dogs; dog, -1 h, 0.85 mg/kg",44 ms and 36 ms and 39 ms
same,Left ventricular -dP/dt (mmHg/s),"telemetered dogs; dog, -1 h, 0.85 mg/kg",3612 mmHg/s and 3810 mmHg/s and 3070 mmHg/s
same,QRS amplitude (% baseline),"telemetered dogs; dog, -1 h, 0.85 mg/kg",101 % baseline and 100 % baseline and 107 % baseline
same,Systolic blood pressure (mmHg),"telemetered dogs; dog, -1 h, 0.85 mg/kg",149 mmHg and 163 mmHg
same,ECG PR interval,"telemetered dogs; dog, -1.25 h, 0.85 mg/kg",110 ms and 96 ms and 89 ms
same,ECG QRS duration,"telemetered dogs; dog, -1.25 h, 0.85 mg/kg",44 ms and 37 ms and 40 ms
same,Left ventricular -dP/dt (mmHg/s),"telemetered dogs; dog, -1.25 h, 0.85 mg/kg",3200 mmHg/s and 3594 mmHg/s and 2862 mmHg/s
same,QRS amplitude (% baseline),"telemetered dogs; dog, -1.25 h, 0.85 mg/kg",100 % baseline and 105 % baseline
same,Systolic blood pressure (mmHg),"telemetered dogs; dog, -1.25 h, 0.85 mg/kg",142 mmHg and 165 mmHg and 139 mmHg
same,QRS amplitude (% baseline),"telemetered dogs; dog, -[…]",100 % baseline
same,tolerability,"telemetered dogs; dog, 1 mg/kg AZD4320",not tolerated
same,Effects,telemetered dogs; [1],No effect level
same,Tolerated?,telemetered dogs; [1],Yes
same,Effects other than QRS amplitude,telemetered dogs; [2],"↓SBP, ↑HR, ↓dP/dt-, ↓PR interval, ↓QRS interval, ↓LVEDP"
same,Tolerated?,telemetered dogs; [2],Yes
same,↓QRS amplitude (% decrease),telemetered dogs; [2],49%
same,Tolerated?,telemetered dogs; [3],Yes
same,↓QRS amplitude (% decrease),telemetered dogs; [3],32%
same,Effects other than QRS amplitude,telemetered dogs; [4],poorly tolerated
same,Tolerated?,telemetered dogs; [4],No
same,↓QRS amplitude (% decrease),telemetered dogs; [4],75%
same,Effects other than QRS amplitude,telemetered dogs; [5],"↓SBP, ↑HR, ↓dP/dt-, ↓PR interval, ↓QRS interval, ↓LVEDP"
same,Tolerated?,telemetered dogs; [5],No
same,↓QRS amplitude (% decrease),telemetered dogs; [5],94%
same,cardiovascular changes,"telemetered dogs; preclinical development, Supplementary Fig. 1a, b","dose-dependent decreases in QRS amplitude, QRS duration & PR intervals, blood pressure, left ventricular pressure and contractility"
same,"tumour volume, individual animals","RS4;11 xenograft; Day 38, in mm³ (unit assumed)",591 and 667 and 633 and 678
same,"tumour volume, individual animals","RS4;11 xenograft; Day 41, in mm³ (unit assumed)",365 and 322 and 378 and 334
same,"tumour volume, individual animals","RS4;11 xenograft; Day 45, in mm³ (unit assumed)",218 and 235 and 397 and 259
same,"tumour volume, individual animals",RS4;11 xenograft; Day 48,0 (2×) and 160 and 156
same,"tumour volume, individual animals",RS4;11 xenograft; Day 52,0 (3×) and 144
same,"tumour volume, individual animals",RS4;11 xenograft; Day 55,0 (3×) and 87
same,"tumour volume, individual animals","RS4;11 xenograft; Day 59, in mm³ (unit assumed)",144 and 155 and 220 and 196
same,"tumour volume, individual animals","RS4;11 xenograft; Day 63, in mm³ (unit assumed)",388 and 353 and 396 and 530
same,"tumour volume, individual animals","RS4;11 xenograft; Day 66, in mm³ (unit assumed)",257 and 221 and 387 and 438
same,"tumour volume, individual animals","RS4;11 xenograft; Day 69, in mm³ (unit assumed)",351 and 316 and 514 and 702
same,"tumour volume, individual animals","RS4;11 xenograft; Day 73, in mm³ (unit assumed)",1003 and 568 and 1069 and 1242
same,anti-tumour activity,"RS4;11 xenograft; RS4;11 tumours, IV, 10 mg/kg or equivalent",complete regression
same,"Tumour volume, Geo Mean","RS4;11 xenograft; 10 mg/kg or equivalent, day 29, in mm³ (unit assumed)",450.827
same,"Tumour volume, Geo Mean","RS4;11 xenograft; 10 mg/kg or equivalent, day 31, in mm³ (unit assumed)",419.877
same,"Tumour volume, Geo Mean","RS4;11 xenograft; 10 mg/kg or equivalent, day 32, in mm³ (unit assumed)",128.263
same,"Tumour volume, Geo Mean","RS4;11 xenograft; 10 mg/kg or equivalent, day 34, in mm³ (unit assumed)",1
same,"Tumour volume, Geo Mean","RS4;11 xenograft; 10 mg/kg or equivalent, day 38, in mm³ (unit assumed)",1
same,"Tumour volume, Geo Mean","RS4;11 xenograft; 10 mg/kg or equivalent, day 41, in mm³ (unit assumed)",1
same,"Tumour volume, Geo Mean","RS4;11 xenograft; 10 mg/kg or equivalent, day 45, in mm³ (unit assumed)",1
same,"Tumour volume, Geo Mean","RS4;11 xenograft; 10 mg/kg or equivalent, day 48, in mm³ (unit assumed)",1
same,"Tumour volume, Geo Mean","RS4;11 xenograft; 10 mg/kg or equivalent, day 56, in mm³ (unit assumed)",4.217
same,"Tumour volume, Geo Mean","RS4;11 xenograft; 10 mg/kg or equivalent, day 59, in mm³ (unit assumed)",31.9033
